Laboratory results: patent US6649797B2, “Compounds and methods of use to treat infectious diseases” (The Picower Institute for Medical Research, priority 1996, dated 2003)

Biological target: T1, recombinant RT (p51/p66 heterodimer) (Human immunodeficiency virus type 1 group M subtype B, UniProt P04585)
T1 construct: recombinant MA or RT (a p51/p66 heterodimer)
Assay: Binding of [14C]-CNI-H0294 to recombinant RT in solution (immunoprecipitation)
Design: species or system HIV-1
Conditions: 20 nmol [14C]-CNI-H0294 with 0.28 nmol RT
Protocol: Twenty nmol of [^14C]-CNI-HO294 were mixed with 0.28 nmol of recombinant MA or RT (a p51/p66 heterodimer) in 40 μl of binding buffer. Samples were incubated for 2 h at 37° C. in the presence or absence of 200 nmol of unlabeled CNI-H0294. MA and RT proteins were immunoprecipitated using protein G agarose and sheep polyclonal anti-MA (αMA) or rabbit anti-RT (αRT) sera, respectively. Pre-immune sera (PI) was used as control. Bound material was eluted from protein G using 0.1 M glycine buffer [pH 2.8] and the radioactivity in the eluate was quantified in a scintillation counter.
Recombinant RT (0.2 μM) was incubated with 3.3 μM of [^14C ]-labeled CNI-H0294 and increasing concentrations of unlabeled (cold) CNI-3094. The amount of [^14C]-CNI-H0294 that bound to RT was measured as in FIG. 11.
0.28 nanomoles of recombinant MA or RT [p66/p51 ] dimer were mixed with 20 nmol of [^14C] CNI-HO294 (specific activity 5×10^4 cpm/nmol) and incubated 2 hr at room temperature in 40 μl of binding buffer (PBS supplemented with 1% BSA, 0.1% Tween 20, 1 μg/ml leupeptin, 1 μg/ml aprotinin, 1 mM PMSF). Sheep anti-MA or rabbit anti-RT sera (both obtained from NIH AIDS Research and Reference Reagent Program) or pre-immune control sera were then added (at 1:100 dilution) and incubation continued for another 1 hr at room temperature. Immune complexes were precipitated with protein G-agarose, washed, and then eluted with 0.1 M glycine, pH 2.8. Radioactivity of the eluate was measured in a scintillation counter.

## CC(=O)c1cc(Nc2cc(C)[n+](C)c(N)n2)cc(C(C)=O)c1 [CNI-0294, 2-Amino-4-(3,5-diacetylphenyl)amino-1,6-dimethylpyrimidinium chloride]
  CNI-H0294 immunoprecipitable with RT: ~0.34 nmol
Specific activity 50,000 cpm/nmol
  radioactivity immunoprecipitable with RT: about 17,000 cpm
